Reference: patent US20110162437A1, “Biomarker for Mitochondrial Toxicity Associated with Phospholipidosis” (priority 2006, published 2011)
Values joined by “and” are separate entries in the source; they are usually repeats but may differ in a detail not shown here. Equal values may be shown once.

How the values were obtained:
Male Wistar rats = experiment: PAG measurement by 1H NMR in urine after single oral dose, ratio versus time-matched controls; assay type: in vivo, rat; conditions: for PAG: urine, individual animals
Protocol: (§1) All animals received (human) care as specified by Swiss law and in accordance with the “Guide for the care and use of laboratory animals” published by the NIH. Male Wistar rats (5 animals/dose-group) were purchased from RCC (Füllingsdorf, Switzerland) and housed individually. Treated animals were dosed orally by gavage with several doses of test compounds (Table 1). Control animals received the same volume of vehicle as placebo. Necropsy was performed 48 (subgroup A) or 168 hours (subgroup B) after a single administration (=Day 1) and urine samples were collected in metabolism cages at 0 to 4° C. (automatically refrigerated by a Tecniplast sampling/cooling unit (RACK B940, Tecniplast, USA)) at the intervals given in the sampling schedule in Table 2 into labelled sample tubes containing 1 ml of an aqueous Na-azide (1%) solution. Before aliquoting, urine volumes were determined.
Urine samples were taken on day -7,-2,-1, 1, 2, 3, 4, 5, 6 and 7, whereby Day 1 was the Day of dosing.
Immediately after reaching the end of the sampling period, the volume was determined and the samples were centrifuged at 3000 u/min (500 g) for 10 minutes.
Aliquot: Approximately 2 ml was transferred in 1.8 ml cryvials, round bottom, freestanding, with screw caps and septum for NMR-spectroscopic examinations (Bruker Analytik GmbH, Rheinstetten, Germany, Bruker part No. 85372). The vials were stored at −80° C.
Urine samples were prepared and measured on a Bruker 500 MHz NMR instrument according to the COMET 1H-NMR protocol (Keun, H. C et al., (2002) Physiological variation and analytical reproducibility in metabonomic urinalysis. Chem. Res. Tox. 15, 1380-1386) and as described above. In total 467 urine samples were analyzed. After measurement, all data were processed by XWINMR 3.5.6 (Bruker Biospin AG, Fällanden). Representative spectra are depicted in FIG. 2. Phase correction and baseline correction were performed with NMRPROC 0.3 (T. Ebbels, H. Keun; Imperial College). Spectral data were binned using AMIX 2.6 (Bruker Biospin AG, Fällanden) following the COMET Data Processing & Pattern Recognition protocol (Keun, H. C., et al., (2002) Physiological variation and analytical reproducibility in metabonomic urinalysis. Chem. Res. Tox. 15, 1380-1386). QC check procedures (Dieterle F., Ross A., Schlotterbeck G., Senn H. (2006) Probabilistic Quotient Normalization as Robust Method to Account for Dilution of Complex Biological Mixtures. Application in 1H NMR Metabonomics. Anal. Chem. 78, 4281-4290) were applied on binned data to detect outliers. In total 7 outliers were detected and removed from further analysis. All data were mean-centered and normalized using the probabilistic quotient normalization (Dieterle F., Ross A., Schlotterbeck G., Senn H. (2006) Probabilistic Quotient Normalization as Robust Method to Account for Dilution of Complex Biological Mixtures. Application in 1H NMR Metabonomics. Anal. Chem. 78, 4281-4290.). All binned data were annotated and transferred to the ANT (ANT: Affymetrix NMR Toxicology Data System) database.
The exact PAG quantification was performed according to following procedure: • Baseline subtraction of spectra • Integration of PAG peaks ((=7.47 ppm, (=7.39 ppm, (=3.79 ppm, and (=3.7 ppm respectively) and Citrate region ((=2.66-2.74 ppm and 2.50-2.58 ppm). • Quotient normalization (Dieterle F., Ross A., Schlotterbeck G., Senn H. (2006) Probabilistic Quotient Normalization as Robust Method to Account for Dilution of Complex Biological Mixtures. Application in 1H NMR Metabonomics. Anal. Chem. 78, 4281-4290.) • Divide each of the PAG bins by its average (all spectra) to correct for different relaxation times and number of protons • Calculate median out of the PAG bins • Calculate ratio versus time-matched controls

lymphocytes = experiment: Electron microscopic examination of buffy coat lymphocytes for lamellar bodies (determination of phospholipidosis); assay type: in vivo, rat; conditions: for Result, PL (grade of severity of phospholipidosis) / lymphocytes %, pos. / lymphocytes positive (with lamellar bodies): individual rats
Protocol: as §1
Blood samples (as much as possible) were withdrawn from all animals at necropsy at about 48 hours after dosing (subgroup A) and about 168 hours after dosing (subgroup B)
The samples were collected from the abdominal aorta or by cardiac puncture under terminal anaesthesia (CO2). A total of at least 2 ml blood was required to gain buffy coat (buffy coat=leukocyte band) samples.
After fixation in 2.5% glutaraldehyde, the buffy coat samples from all animals were embedded in Epon. […] All thin sections were examined ultrastructurally. If possible, 200 lymphocytes per sample were examined for lamellar bodies. The results per sample include the total number of lymphocytes examined, the total number of positive lymphocytes (i.e. with lamellar bodies), the percentage of positive lymphocytes and a grading of severity of phospholipidosis (criteria see table 4)

basic pKa value = assay type: physicochemical
[1] = potential to induce phospholipidosis judged from amphiphilicity and basic pKa; conditions: from reduced amphiphilicity and basic pKa
Excerpt: The structural difference between both molecules can be mainly characterized by the exchange of the piperazine against a morpholine moiety in compound 2.

[2] = rat, low-dosed animals (300 mg/kg)
[3] = 300 mg/kg/day, necropsy 168 hours after application
[4] = 300 mg/kg/day, necropsy 48 hours after application, 300 mg/kg/day
[5] = 300 mg/kg/day, necropsy 168 hours after application, 300 mg/kg/day
[6] = 1500 mg/kg/day, necropsy 48 hours after application, 1500 mg/kg/day
[7] = 1500 mg/kg/day, necropsy 168 hours after application, 1500 mg/kg/day

Cc1ccccc1-c1cc(N2CCN(C)CC2)ncc1N(C)C(=O)C(C)(C)c1cc(C(F)(F)F)cc(C(F)(F)F)c1 [Compound 1, 2-(3,5-Bis-trifluoromethyl-phenyl)-N-methyl-N-[6-(4-methyl-piperazin-1-yl)-4-o-tolyl-pyridin-3-yl]-isobutyramide]
PAG (Male Wistar rats; High_Dose group, Time 0 (within 8 hours before treatment)): 0.3099 and 0.4951 and 0.2661 and 0.1961 and 0.1580 and 0.3419 and 0.1895 and 0.2711 and 0.3305 and 0.4159
PAG (Male Wistar rats; High_Dose group, Time 8 (within 8 hours after treatment)): 0.8523 and 0.4093 and 0.7986 and 0.5172 and 0.2995 and 0.4361 and 0.5473 and 0.4307 and 1.0174 and 0.3275
PAG (Male Wistar rats; High_Dose group, Time 24 (within 8 to 24 hours after treatment)): 1.7579 and 1.3035 and 1.4190 and 0.4001 and 0.8788 and 1.2898 and 1.4210 and 1.9488 and 1.6305 and 1.2496
PAG (Male Wistar rats; High_Dose group, Time −16 (1 day before treatment)): 0.7486 and 0.5615 and 0.6169 and 0.5637 and 0.4281 and 0.4828 and 0.2993 and 0.4535 and 0.5361 and 0.5442
PAG (Male Wistar rats; High_Dose group, Time −144 (7 days before treatment)): 0.7666 and 0.8823 and 1.0974 and 0.6021 and 1.2709 and 1.0355
PAG (Male Wistar rats; Low_Dose group, Time 0 (within 8 hours before treatment)): 0.3142 and 0.2440 and 0.3422 and 0.2530 and 0.3700 and 0.6319 and 0.3708 and 0.3307 and 0.2336
PAG (Male Wistar rats; Low_Dose group, Time 8 (within 8 hours after treatment)): 1.1423 and 0.5270 and 0.3918 and 0.5331 and 0.6815 and 0.2977 and 0.6756 and 0.7527 and 0.4111 and 0.3688
PAG (Male Wistar rats; Low_Dose group, Time 24 (within 8 to 24 hours after treatment)): 0.6300 and 0.8072 and 1.0165 and 0.7250 and 0.5035 and 0.6637
PAG (Male Wistar rats; Low_Dose group, Time 48 (2 days after treatment)): 0.7584 and 0.6368 and 0.9878 and 0.6461 and 1.0386 and 0.3452 and 0.5698 and 0.3492 and 0.6477
PAG (Male Wistar rats; Low_Dose group, Time −16 (1 day before treatment)): 0.2393 and 0.4349 and 0.5528 and 0.5649 and 0.8171 and 0.3201 and 0.5236 and 0.6045 and 0.4646 and 0.2537
PAG (Male Wistar rats; Low_Dose group, Time −144 (7 days before treatment)): 0.8210 and 1.1559 and 0.9260 and 0.7456 and 0.8081 and 0.6038 and 1.5903 and 1.1241 and 0.9275 and 0.8848
increase of mean PAG levels compared to time matched controls (Male Wistar rats; rat, high-dosed animals (1500 mg/kg)): 4 fold
mean PAG levels remaining elevated until the end of the study (Male Wistar rats; rat, high-dosed animals (1500 mg/kg), until 168 h): 3-4 fold
increase of mean PAG levels compared to time matched controls (factor) (Male Wistar rats; [2]): two
mean levels of PAG at time points later than 72 h (Male Wistar rats; [2]): fall below control samples
start of PAG elevation after dosing (Male Wistar rats; rat, single oral dose, both dose groups): 24 h
dose dependant change of PAG levels in urine (Male Wistar rats; rat, single oral dose, both dose groups, normalized to time matched controls): significant dose dependant elevation
recovery of phospholipidosis 168 hours after application (lymphocytes; 300 mg/kg/day): partial or complete recovery
phospholipidosis severity (group assessment) (lymphocytes; 300 mg/kg/day, necropsied 48 hours after application): minimal to slight
incidence of affected lymphocytes (range over animals) (lymphocytes; 300 mg/kg/day, necropsied 48 hours after application, data from 3 animals): 5-12%
incidence of affected lymphocytes (range over animals) (lymphocytes; [3]): 0-1%
phospholipidosis severity (group assessment) (lymphocytes; [3]): minimal or not present
recovery of phospholipidosis within 168 hours after application (lymphocytes; 1500 mg/kg/day): no indications of recovery
lymphocytes affected (range) (lymphocytes; 1500 mg/kg/day, both time points (48 and 168 hours)): 15-31%
phospholipidosis severity (group assessment) (lymphocytes; 1500 mg/kg/day, necropsied 48 hours after application): moderate to marked
incidence of affected lymphocytes (range over animals) (lymphocytes; 1500 mg/kg/day, necropsied 48 hours after application, data from 4 animals): 15-31%
phospholipidosis severity (group assessment) (lymphocytes; 1500 mg/kg/day, sacrificed 168 hours after application): moderate to marked
incidence of affected lymphocytes (range over animals) (lymphocytes; 1500 mg/kg/day, sacrificed 168 hours after application, data from 4 animals): 21-31%
Result, PL (grade of severity of phospholipidosis) (lymphocytes; [4]): 1 (≦5%: minimal) and 2 (>5-15%: slight) (2×)
lymphocytes %, pos. (lymphocytes; [4]): 5% and 5.7% and 12.2%
lymphocytes positive (with lamellar bodies) (lymphocytes; [4]): 10 and 8 and 23
Result, PL (grade of severity of phospholipidosis) (lymphocytes; [5]): 1 (≦5%: minimal)
lymphocytes %, pos. (lymphocytes; [5]): 0% (2×) and 1.1% and 1% and 0.8%
lymphocytes positive (with lamellar bodies) (lymphocytes; [5]): 0 (2×) and 2 (2×) and 1
Result, PL (grade of severity of phospholipidosis) (lymphocytes; [6]): 3 (>15-25%: moderate) (2×) and 4 (>25: marked) (2×) and (2) (>5-15%: slight)
lymphocytes %, pos. (lymphocytes; [6]): 18.8% and 15.1% and 31% and (5.8) % and 25.7%
lymphocytes positive (with lamellar bodies) (lymphocytes; [6]): 36 and 19 and 61 and (3) and 29
Result, PL (grade of severity of phospholipidosis) (lymphocytes; [7]): 4 (>25: marked) (2×) and 3 (>15-25%: moderate) (2×)
lymphocytes %, pos. (lymphocytes; [7]): 31% and 21% and 28.2% and 24%
lymphocytes positive (with lamellar bodies) (lymphocytes; [7]): 62 and 42 and 29 and 25
lymphocytes containing cytoplasmic lamellar bodies (finding in words) (lymphocytes; rats, single oral dose, necropsy 48 or 168 hours after application): seen and occurred dose dependently
pKa (basic pKa value): 7.67
potential to induce phospholipidosis [1]: high potential
